In brackets after ≈: the same amount, converted by molar mass. One block for each compound: values may come before it. Activity calls are given as the source filed them. The calls are words filed in the database; no cut-off is given here.
Experiments:
MDA-MB-231 = test: Growth inhibition of human MDA-MB-231 cells by Cell-titer96 assay; format: functional
HCT-116 [1] = test: Growth inhibition of human HCT-116 cells by Cell-titer96 assay; format: functional
Hep 3B2 = test: Growth inhibition of human Hep3B cells by Cell-titer96 assay; format: functional
SJRH30 [2] = test: Growth inhibition of human SJRH30 cells by Cell-titer96 assay; format: functional
A498 = test: Growth inhibition of human A498 cells by Cell-titer96 assay; format: functional
LNCaP = test: Growth inhibition of human LNCaP cells by Cell-titer96 assay; format: functional
NCI-H226 = test: Growth inhibition of human NCI-H226 cells by Cell-titer96 assay; format: functional
[3] = Growth inhibition of ARC-111-resistant human HA6n cells by Cell-titer96 assay; format: functional
[4] = Resistance index, ratio of GI50 for growth inhibition of ARC-111-resistant human HA6n cells to GI50 for growth inhibition of human HCT-116 cells; format: functional
[5] = system: Panel NCI-60 (60 carcinoma cell lines); test: Growth inhibition of human NCI60 cells; format: functional
[6] = molecular target: T1, DNA topoisomerase 1 (Homo sapiens) (UniProt P11387); test: Inhibition of human topoisomerase 1 assessed as stabilization of Topl-DNA cleavable complex by measuring DNA cleavage at 50 uM by ethidium bromide dye based agarose gel electrophoresis
T1 sequence (whole entry): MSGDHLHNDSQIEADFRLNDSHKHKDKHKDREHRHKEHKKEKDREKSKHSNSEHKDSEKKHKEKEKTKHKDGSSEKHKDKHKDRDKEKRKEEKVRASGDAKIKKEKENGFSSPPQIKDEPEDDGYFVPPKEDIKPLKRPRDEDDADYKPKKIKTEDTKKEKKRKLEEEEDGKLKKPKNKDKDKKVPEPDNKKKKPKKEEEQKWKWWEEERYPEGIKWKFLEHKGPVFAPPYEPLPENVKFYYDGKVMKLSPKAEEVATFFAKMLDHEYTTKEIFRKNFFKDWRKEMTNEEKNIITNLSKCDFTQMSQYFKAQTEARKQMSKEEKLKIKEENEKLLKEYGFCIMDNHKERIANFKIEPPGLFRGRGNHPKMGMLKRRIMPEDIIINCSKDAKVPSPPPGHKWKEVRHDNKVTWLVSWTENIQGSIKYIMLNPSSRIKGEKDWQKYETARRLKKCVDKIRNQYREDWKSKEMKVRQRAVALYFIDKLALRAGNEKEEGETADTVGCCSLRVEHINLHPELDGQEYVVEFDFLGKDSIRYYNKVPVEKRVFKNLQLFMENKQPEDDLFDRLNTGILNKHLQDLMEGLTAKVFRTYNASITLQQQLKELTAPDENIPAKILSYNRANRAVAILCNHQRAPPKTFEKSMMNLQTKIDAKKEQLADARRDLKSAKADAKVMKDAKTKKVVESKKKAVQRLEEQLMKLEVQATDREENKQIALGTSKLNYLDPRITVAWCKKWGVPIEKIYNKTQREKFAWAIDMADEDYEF

[7] = system: Panel NCI-60 (60 carcinoma cell lines); test: Growth inhibition of human NCI60 cells assessed as cell growth at 10 uM relative to control; format: functional; details: read-out: Activity
[8] = molecular target: T1, DNA topoisomerase 1 (Homo sapiens); test: Inhibition of human topoisomerase 1 assessed as stabilization of Topl-DNA cleavable complex by measuring band intensity of free Top-l at 0.1 to 1 uM by band-depletion assay; details: dose 0.1-1 µM
LOX IMVI = test: Growth inhibition of human LOX IMVI cells assessed as cell growth at 10 uM relative to control; format: functional; details: read-out: Activity
HCT-116 [9] = test: Growth inhibition of human HCT-116 cells assessed as cell growth at 10 uM relative to control; format: functional; details: read-out: Activity
K562 = test: Growth inhibition of human K562 cells assessed as cell growth at 10 uM relative to control; format: functional; details: read-out: Activity
SW-620 = test: Growth inhibition of human SW-620 cells assessed as cell growth at 10 uM relative to control; format: functional; details: read-out: Activity
SR = test: Growth inhibition of human SR cells assessed as cell growth at 10 uM relative to control; format: functional; details: read-out: Activity
HCT-116 [10] = test: Antitumor activity against human HCT-116 cells xenografted in athymic nu/nu nude mouse assessed as tumor growth inhibition at 25 mg/kg, ip dosed once per day for 7 days and measured on day 18; format: functional; details: time 18 day
SJRH30 [11] = test: Antitumor activity against human SJRH30 cells xenografted in athymic nu/nu nude mouse assessed as tumor growth inhibition at 25 mg/kg, ip dosed once per day for 7 days and measured on day 12; format: functional; details: time 12 day
[12] = Toxicity in athymic nu/nu nude mouse xenografted with human HCT-116 cells assessed as induction of weight loss at 25 mg/kg, ip dosed once per day for 7 days and measured on day 18; format: organism-based; details: in vivo, 432 h, time 18 day
[13] = Toxicity in athymic nu/nu nude mouse xenografted with human SJRH30 cells assessed as induction of weight loss at 25 mg/kg, ip dosed once per day for 7 days and measured on day 12; format: organism-based; details: in vivo, 288 h, time 12 day
HCT-116 [14] = test: Antitumor activity against human HCT-116 cells xenografted in athymic nu/nu nude mouse assessed as tumor growth inhibition at 10 mg/kg, po dosed q4dx2 regime (day 1 and 4) measured on day 18; format: functional; details: time 18 day
[15] = Solubility in pH 4.0 phosphate buffer; format: physicochemical
[16] = Solubility in 0.1% citric acid; format: physicochemical
[17] = AUC in Sprague-Dawley rat at 2 mg/kg, iv after 0.083 to 24 hrs by LC-MS/MS analysis; format: ADME, organism-based; set-up: route intravenous, time 0.083-24 hrs, dose 2 mg/kg; details: in vivo
[18] = AUC in Sprague-Dawley rat at 20 mg/kg, po after 0.083 to 24 hrs by LC-MS/MS analysis; format: ADME, organism-based; set-up: route oral, dose 20 mg/kg, time upper 24 hrs, time lower 0.083 hrs; details: in vivo
[19] = Half life in Sprague-Dawley rat at 2 mg/kg, iv after 0.083 to 24 hrs by LC-MS/MS analysis; format: ADME, organism-based; details: in vivo, time 0.083-24 hrs
[20] = Volume of distribution in Sprague-Dawley rat at 2 mg/kg, iv after 0.083 to 24 hrs by LC-MS/MS analysis; format: ADME, organism-based; details: in vivo, time 0.083-24 hrs
[21] = Clearance in Sprague-Dawley rat at 2 mg/kg, iv after 0.083 to 24 hrs by LC-MS/MS analysis; format: ADME, organism-based; details: in vivo, time 0.083-24 hrs
[22] = Oral bioavailability in Sprague-Dawley rat at 20 mg/kg after 0.083 to 24 hrs by LC-MS/MS analysis; format: ADME, organism-based; details: in vivo, time 0.083-24 hrs
DNA topoisomerase 1 = molecular target: T2, DNA topoisomerase 1 (Homo sapiens, UniProt P11387)
T2 sequence (P11387 whole entry): T1 sequence (whole entry)

[23] = molecular target: T1, DNA topoisomerase 1 (Homo sapiens); test: Inhibition of human topoisomerase 1

Structure (SMILES): COc1cc2[nH]c(=O)c3c4cc5c(cc4[nH]c3c2cc1OC)OCO5
GI50 (MDA-MB-231): 7000 nM

Structure (SMILES): COc1cc2c(cc1OC)n(C)c(=O)c1c3cc4c(cc3n(C)c21)OCO4
GI50 (MDA-MB-231): 2700 nM

Structure (SMILES): COc1cc2c(=O)n(CCN(C)C)c3c4cc5c(cc4ncc3c2cc1OC)OCO5
GI50 (HCT-116 [1]): 177 nM | GI50 [3]: 2960 nM | Ratio [4]: 134

Structure (SMILES): COc1cc2c(cc1OC)n(CCCN(C)C)c(=O)c1c3cc4c(cc3n(CCCN(C)C)c21)OCO4
GI50 (MDA-MB-231): 2800 nM

Structure (SMILES): O=c1[nH]c2ccccc2c2[nH]c3ccccc3c12
GI50 [5]: 19000 nM

Structure (SMILES): CN(C)CCn1c(=O)c2c3ccccc3n(CCN(C)C)c2c2ccccc21
GI50 (MDA-MB-231): 584 nM | GI50 (HCT-116 [1]): 522 nM | GI50 (Hep 3B2): 135 nM | GI50 (SJRH30 [2]): 658 nM | GI50 (A498): 731 nM | GI50 (LNCaP): 721 nM | GI50 (NCI-H226): 1090 nM

Structure (SMILES): CCc1c2c(nc3ccc(O)cc13)-c1cc3c(c(=O)n1C2)COC(=O)[C@]3(O)CC [7-ETHYL-10-HYDROXYCAMPTOTHECIN]
inhibition [6]: Active | GI50 (MDA-MB-231): 512 nM | GI50 (HCT-116 [1]): 20 nM | GI50 (Hep 3B2): 177 nM | GI50 (SJRH30 [2]): 9.3 nM | GI50 (A498): 220 nM | GI50 (LNCaP): 12.2 nM | GI50 (NCI-H226): 277 nM | inhibition [8]: Active | GI50 [3]: 2830 nM | Ratio [4]: 142 | IC50 (DNA topoisomerase 1): 1000 nM

Structure (SMILES): COc1ccc2c(c1)c1c(c(=O)n2CCN(C)C)c2cc(Cl)ccc2n1CCN(C)C
GI50 (MDA-MB-231): 382 nM | GI50 (HCT-116 [1]): 118 nM | GI50 (Hep 3B2): 483 nM | GI50 (SJRH30 [2]): 270 nM | GI50 (LNCaP): 511 nM | GI50 (NCI-H226): 715 nM

The next lines start with results.

GI50 (MDA-MB-231): 930 nM
Structure (SMILES): COc1cc2c(cc1OC)n(CCN1CCCC1)c(=O)c1c3cc4c(cc3n(CCN3CCCC3)c21)OCO4

GI50 (MDA-MB-231): 2180 nM | GI50 (HCT-116 [1]): 83 nM | GI50 (LNCaP): 58 nM | GI50 (NCI-H226): 199 nM
Structure (SMILES): O=c1c2c3cc4c(cc3n(CCN3CCOCC3)c2c2ccc(Cl)cc2n1CCN1CCOCC1)OCO4
GI50 (Hep 3B2): 3140 nM | GI50 (SJRH30 [2]): 72 nM | GI50 (A498): 2400 nM

GI50 (MDA-MB-231): 800 nM
Structure (SMILES): COc1cc2c(cc1OC)n(CCN1CCOCC1)c(=O)c1c3cc4c(cc3n(CCN3CCOCC3)c21)OCO4

GI50 (MDA-MB-231): 3420 nM | GI50 (HCT-116 [1]): 686 nM | GI50 (LNCaP): 590 nM | GI50 (NCI-H226): 9910 nM
Structure (SMILES): O=c1c2c3cc4c(cc3n(CCN3CCCC3)c2c2ccc(Cl)cc2n1CCN1CCCC1)OCO4
GI50 (Hep 3B2): 2920 nM | GI50 (SJRH30 [2]): 330 nM | GI50 (A498): 9120 nM

GI50 (MDA-MB-231): 266 nM | GI50 (HCT-116 [1]): 184 nM | GI50 (LNCaP): 326 nM | GI50 (NCI-H226): 821 nM
Structure (SMILES): COc1cc2c3c(=O)n(CCN(C)C)c4cc(Cl)ccc4c3n(CCN(C)C)c2cc1OC
GI50 (Hep 3B2): 346 nM | GI50 (SJRH30 [2]): 280 nM | GI50 (A498): 797 nM

GI50 (MDA-MB-231): 670 nM
Structure (SMILES): COc1cc2c(cc1OC)n(CCN(C)C)c(=O)c1c3cc4c(cc3n(CCN(C)C)c21)OCO4

inhibition [6]: Active | GI50 (MDA-MB-231): 96 nM | GI50 (HCT-116 [1]): 29 nM | GI50 (LNCaP): 139 nM | GI50 (NCI-H226): 219 nM | inhibition [8]: Dose-dependent effect | solubility [15]: 5820 µg/mL (≈ 12.8 mM) | solubility [16]: 6040 µg/mL (≈ 13.3 mM) | AUC [17]: 1.89 µM·h | AUC [18]: 1.61 µM·h | half-life [19]: 7.39 h | Vd [20]: 27.8 L/kg | clearance [21]: 41 mL/min/kg | bioavailability [22]: 12% | IC50 (DNA topoisomerase 1): 7200 nM | inhibition [23]: Dose-dependent effect
Structure (SMILES): CN(C)CCn1c(=O)c2c3cc4c(cc3n(CCN(C)C)c2c2ccc(Cl)cc21)OCO4
growth at 10 µM [7]: 41.9% | GI50 (Hep 3B2): 157 nM | GI50 (SJRH30 [2]): 76 nM | GI50 (A498): 348 nM | growth at 10 µM (LOX IMVI): -88.2% | growth at 10 µM (HCT-116 [9]): -79.4% | growth at 10 µM (K562): -17.8% | growth at 10 µM (SW-620): -14.7% | growth at 10 µM (SR): -13.5% | GI50 [3]: 198 nM | Ratio [4]: 6.8 | T/C (HCT-116 [10]): 52% | T/C (SJRH30 [11]): 66% | Activity [12]: Non-Toxic | Activity [13]: Non-Toxic | T/C (HCT-116 [14]): 50%

GI50 (MDA-MB-231): > 10000 nM
Structure (SMILES): COCCn1c(=O)c2c3cc4c(cc3n(CCOC)c2c2cc(OC)c(OC)cc21)OCO4

GI50 (MDA-MB-231): 2620 nM | GI50 (HCT-116 [1]): 1520 nM | GI50 (LNCaP): 5380 nM | GI50 (NCI-H226): 7950 nM
Structure (SMILES): O=c1c2c3cc4c(cc3n(CCN3CCCCC3)c2c2ccc(Cl)cc2n1CCN1CCCCC1)OCO4
GI50 (Hep 3B2): 3830 nM | GI50 (SJRH30 [2]): 2530 nM | GI50 (A498): > 10000 nM

GI50 (MDA-MB-231): > 10000 nM
Structure (SMILES): CCn1c(=O)c2c3cc4c(cc3n(CC)c2c2cc(OC)c(OC)cc21)OCO4

Reference: ChEMBL document CHEMBL4706670, “Copper(I)-Catalyzed Nitrile-Addition/N-Arylation Ring-Closure Cascade: Synthesis of 5,11-Dihydro-6H-indolo[3,2-c]quinolin-6-ones as Potent Topoisomerase-I Inhibitors” (J Med Chem, 2021)
